Like-named read-outs stand apart in the source and are kept apart here. Square brackets hold non-standard residues; d marks the D form. Ends that are not written are not given here. Peptide text beside a SMILES is read from it. Aad = N[C@@H](CCCC(=O)O)C(=O)O; Sec = N[C@@H](C[SeH])C(=O)O; Orn = NCCC[C@H](N)C(=O)O
Columns and labels:
human JMJD7 [1] = target: T1, human JMJD7 (Homo sapiens, UniProt P0C870); test: LC-MS assay of JMJD7-catalyzed hydroxylation/oxidation of DRG1 peptides; format: biochemical; conditions: 10 μM FAS, 100 μM LAA
T1 construct: human JMJD7 (residues 1–316) with an N‐terminal His6‐tag; His6 (N); made in house; host or cells: Escherichia coli Rosetta (DE3)
T1 sequence (P0C870 whole entry, the tested form may be a part): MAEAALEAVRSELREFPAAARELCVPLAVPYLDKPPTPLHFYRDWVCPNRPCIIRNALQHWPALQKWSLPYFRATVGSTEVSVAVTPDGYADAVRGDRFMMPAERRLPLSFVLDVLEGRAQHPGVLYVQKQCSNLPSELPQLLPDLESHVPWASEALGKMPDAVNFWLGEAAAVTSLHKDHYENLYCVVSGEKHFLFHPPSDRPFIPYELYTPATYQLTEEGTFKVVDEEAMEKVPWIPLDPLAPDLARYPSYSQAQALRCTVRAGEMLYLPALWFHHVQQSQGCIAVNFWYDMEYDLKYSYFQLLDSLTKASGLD
Experimental: Initial assays were carried out by incubation of purified recombinant (Markolovic et al., [2018]) human JMJD7 (2 μM) in the presence of a DRG1 derived peptide (10 μM), 2OG (10 μM), ferrous ammonium sulfate (FAS, 10 μM), and L‐ascorbate (LAA, 100 μM) in Tris buffer at pH 7.5 for 2 h at room temperature. Potential conversion to a hydroxylated product (+16 Da mass shift) was monitored by liquid‐chromatography‐mass‐spectrometry (LC–MS). […] The assay results also implied that DRG1‐Orn was hydroxylated, but to a lower extent (~21%) than DRG1‐Lys. […] The alcohol‐containing peptide hydroxynorleucine (DRG1‐HNle), was hydroxylated at relatively low levels (~24%), implying that H‐bonding interactions and positive charge of the N^ɛ‐amino group of lysine are important for efficient binding and catalysis, but that a neutral alcohol can still be accommodated at the active site (Figure 3f) (Markolovic et al., [2018]).
All reagents were procured from Sigma Aldrich. 2‐Oxoglutarate (2OG, 10 mM) and L‐ascorbic acid (LAA, 50 mM) solutions were prepared freshly by dissolving the solids in deionized water. Ferrous ammonium sulfate (FAS) solution was prepared freshly by dissolving FAS at 400 mM in 20 mM HCl with subsequent dilution to 1 mM using deionized water. JMJD7 assays using DRG1 (16–40) based peptides were performed with the following conditions: (i) 2 or 5 μM JMJD7, 10 μM DRG1 peptide, 100 μM LAA, 10 μM FAS, 10 μM 2OG in mM 50 Tris‐buffer (pH 7.5), (ii) 2 μM JMJD7, 10 μM DRG1 peptide, 100 μM LAA, 10 μM FAS, 20 μM 2OG in mM 50 Tris‐buffer (pH 7.5). Reactions were initiated by addition of enzyme to the cosubstrate/substrate solution in a final reaction volume of 50 μL with 2 h incubation at room temperature. A positive control reaction containing enzyme and a validated peptide substrate was included in all screening studies. After 2 h, reactions were stopped by addition of 5 μL of 10% (v/v) LC–MS grade formic acid (Fisher Scientific) and transferred to a 96 well plate (Agilent). Intact mass peptide analysis was performed by LC–MS using an Agilent 1290 infinity II LC system equipped with an Agilent 1290 multisampler and an Agilent 1290 high speed pump and connected to an Agilent 6550 accurate mass iFunnel quadrupole time of flight (Q‐TOF) mass spectrometer. The reaction mixture (4 μL) was injected and loaded onto a ZORBAX RRHD Eclipse Plus C18 column (Agilent). Solvent A consisted of LC–MS grade water containing 0.1% (v/v) formic acid and solvent B consisted of MeCN containing 0.1% (v/v) formic acid. Peptides were separated using a step wise gradient (0 min – 95% solvent A, 1.0 min – 80% solvent A, 3.0 min – 45% solvent A, 4.0 min – 45% solvent A, 5.0 min – 0% solvent A, 6.0 min – 0% solvent A, 7.0 min – 95% solvent A). This was followed by a 3 min elution with 95% solvent A to re‐equilibrate the column. Flow rates were 0.2 mL/min. The mass spectrometer was operated in the positive ion mode with a drying gas temperature (280°C), drying gas flow rate (13 L min^−1), nebulizer pressure (40 psig), sheath gas temperature (350°C), sheath gas flow rate (12 L min^−1), capillary voltage (4000 V), nozzle voltage (1000 V). Data were analyzed using Agilent MassHunter Qualitative Analysis (Version B.07.00) software.

human JMJD7 [2] = target: T1, human JMJD7; test: MALDI-TOF MS JMJD7 inhibition assay; format: biochemical
Experimental: Due to signal overlaps between some DRG1 peptides and the reference DRG1‐Lys substrate, we synthesized a shorter reference substrate peptide (DRG1‐Lys, residues 17–40) for use in the MS‐based inhibition assays. Synthetic DRG1 peptides (residues 16–40, 10 or 50 μM) were preincubated with JMJD7 (200 nM) for 15 min, after which time the DRG1‐Lys substrate (residues 17–40, 5 μM), 2OG (10 μM), FAS […] and LAA […] were added, and the reaction were carried out for 25 min at room temperature. Most of the DRG1 peptides were not active as JMJD7 inhibitors at 10 μM (residual activity of JMJD7 >50%) (Figure S41a,b), with exceptions including the DRG1‐Orn, DRG1‐hGln and DRG1‐4pyrA peptides.
Single point screening assays were as follows; initially, JMJD7 (200 nM) and substituted DRG1 peptide (10 or 50 μM) were incubated for 15 min, followed by the addition of a mixture of the DRG1‐Lys substrate (5 μM), 2OG (10 μM), FAS (10 μM) and LAA (100 μM) in a final volume of 50 μL in Tris‐buffer (pH 7.5) and incubated for additional 25 min at room temperature. […] Reactions were quenched by the addition of 10% (v/v) formic acid and mixed 1:1 with CHCCA matrix (1:1 v/v MeCN:H2O) then analyzed by MALDI‐TIMS‐TOF MS. JMJD7 activity was determined by calculating the integral of hydroxylated peptide and normalized to a control reaction in absence of potential inhibitory peptides. Every experiment was performed in duplicate (n = 2), error bars are reported as SE.

human JMJD7 [3] = target: T1, human JMJD7; test: MALDI-TOF MS JMJD7 inhibition assay; format: biochemical; remark: listed apart in the source
human JMJD7 [4] = target: T1, human JMJD7; test: Q-TOF-MS protein-observed analysis of intact JMJD7 (adduct formation); format: binding; conditions: 2 μM JMJD7, 20 μM peptide; for JMJD7-peptide adduct formation: Q-TOF-MS of intact protein
Experimental: To investigate inhibition by the DRG1‐Cys/Sec peptides, we performed protein‐observed analysis of JMJD7 (2 μM) in the presence of the DRG1‐Cys/Sec peptides (20 μM) under likely non‐denaturing conditions (Figure 7g). The observed masses correspond to the JMJD7‐DRG1‐Cys (40.79 kDa) and JMJD7‐DRG1‐Sec (40.84 kDa) adducts, implying that DRG1‐Cys/Sec might inhibit JMJD7 via formation of S‐S/Se‐S bonds, plausibly with Cys132, though further work is required to validate this (Figure 7g).

[5] = target: human Jumonji-C (JmjC) domain-containing protein 7 (JMJD7), residues 1-316 (human) (UniProt P0C870)
human Jumonji-C (JmjC) domain-containing protein 7 (JMJD7), residues 1-316 (human), sequence (P0C870 whole entry, the tested form may be a part): as above

[6] = 200 nM JMJD7 preincubated 15 min with peptide (1 nM–150 μM), 5 μM DRG1-Lys (17–40) substrate, 10 μM 2OG, 25 min, room temperature, Tris pH 7.5, MALDI MS, duplicate (n = 2), ± SE, read-out: IC50 (JMJD7 inhibition, with 15 min preincubation)
[7] = same assay conditions but without preincubation, read-out: IC50 (JMJD7 inhibition, without preincubation)

DRG1-4pyrA peptide (DRG1 residues 16-40, 4pyrA in place of Lys22), sequence (peptide): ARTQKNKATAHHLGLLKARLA

| Molecule | IC50 (human JMJD7 [3]; [6]) [µM] | IC50 (human JMJD7 [3]; [7]) [µM] | JMJD7-peptide adduct formation (human JMJD7 [4]) | other results |
| --- | --- | --- | --- | --- |
| CC(C)C[C@H](NC(=O)CNC(=O)[C@H](CC(C)C)NC(=O)[C@H](Cc1c[nH]cn1)NC(=O)[C@H](Cc1c[nH]cn1)NC(=O)[C@H](C)NC(=O)[C@@H](NC(=O)[C@H](C)NC(=O)[C@H](CCCN)NC(=O)[C@H](CC(N)=O)NC(=O)[C@H](CCCCN)NC(=O)[C@H](CCC(N)=O)NC(=O)[C@@H](NC(=O)[C@H](CCCNC(=N)N)NC(=O)[C@H](C)N)[C@@H](C)O)[C@@H](C)O)C(=O)N[C@@H](CC(C)C)C(=O)N[C@@H](CCCCN)C(=O)N[C@@H](C)C(=O)N[C@@H](CCCNC(=N)N)C(=O)N[C@@H](CC(C)C)C(=O)N[C@@H](C)C(=O)N[C@@H](CCCCN)C(=O)N[C@@H](CC(C)C)C(=O)N[C@@H](CCCNC(=N)N)C(=O)N[C@@H](CCCNC(=N)N)C(N)=O [DRG1‐Orn] (H-ARTQKN[Orn]ATAHHLGLLKARLAKLRR-NH2) | 14 |  |  | extent of hydroxylation by JMJD7 at higher 2OG concentration (human JMJD7 [1]; 2 μM JMJD7, 10 μM peptide, 20 μM 2OG, pH 7.5, 2 h incubation): ~ 31%; extent of hydroxylation (+16 Da) by JMJD7 (human JMJD7 [1]; standard conditions: 2 μM JMJD7, 10 μM DRG1 peptide, 10 μM 2OG, Tris pH 7.5, 2 h, room temperature): ~ 21%; single point inhibition of JMJD7 at 50 μM peptide (human JMJD7 [2]; 50 μM DRG1 peptide, 200 nM JMJD7, 15 min preincubation, 5 μM DRG1-Lys substrate): clear inhibition |
| CC(C)C[C@H](NC(=O)CNC(=O)[C@H](CC(C)C)NC(=O)[C@H](Cc1c[nH]cn1)NC(=O)[C@H](Cc1c[nH]cn1)NC(=O)[C@H](C)NC(=O)[C@@H](NC(=O)[C@H](C)NC(=O)[C@H](C[SeH])NC(=O)[C@H](CC(N)=O)NC(=O)[C@H](CCCCN)NC(=O)[C@H](CCC(N)=O)NC(=O)[C@@H](NC(=O)[C@H](CCCNC(=N)N)NC(=O)[C@H](C)N)[C@@H](C)O)[C@@H](C)O)C(=O)N[C@@H](CC(C)C)C(=O)N[C@@H](CCCCN)C(=O)N[C@@H](C)C(=O)N[C@@H](CCCNC(=N)N)C(=O)N[C@@H](CC(C)C)C(=O)N[C@@H](C)C(=O)N[C@@H](CCCCN)C(=O)N[C@@H](CC(C)C)C(=O)N[C@@H](CCCNC(=N)N)C(=O)N[C@@H](CCCNC(=N)N)C(N)=O [DRG1‐Sec] (H-ARTQKN[Sec]ATAHHLGLLKARLAKLRR-NH2) | 1.46 | 2.8 |  |  |
| CC(C)C[C@H](NC(=O)CNC(=O)[C@H](CC(C)C)NC(=O)[C@H](Cc1c[nH]cn1)NC(=O)[C@H](Cc1c[nH]cn1)NC(=O)[C@H](C)NC(=O)[C@@H](NC(=O)[C@H](C)NC(=O)[C@H](CCCC(N)=O)NC(=O)[C@H](CC(N)=O)NC(=O)[C@H](CCCCN)NC(=O)[C@H](CCC(N)=O)NC(=O)[C@@H](NC(=O)[C@H](CCCNC(=N)N)NC(=O)[C@H](C)N)[C@@H](C)O)[C@@H](C)O)C(=O)N[C@@H](CC(C)C)C(=O)N[C@@H](CCCCN)C(=O)N[C@@H](C)C(=O)N[C@@H](CCCNC(=N)N)C(=O)N[C@@H](CC(C)C)C(=O)N[C@@H](C)C(=O)N[C@@H](CCCCN)C(=O)N[C@@H](CC(C)C)C(=O)N[C@@H](CCCNC(=N)N)C(=O)N[C@@H](CCCNC(=N)N)C(N)=O [DRG1‐hGln] (H-ARTQKN[Aad](NH2)ATAHHLGLLKARLAKLRR-NH2) | 7.68 |  |  |  |
| ARTQKNCATAHHLGLLKARLAKLRR-NH2 [DRG1‐Cys] | 1.25 | 16 | observed in lower extent at 1 min | JMJD7-peptide cross-linking in the presence of DTT (human JMJD7 [4]; DTT in the buffer, Q-TOF-MS): no cross‐linking is observed; single point inhibition of JMJD7 under reducing conditions (human JMJD7 [2]; 10 and 50 μM peptide, DTT or TCEP (1 mM) as reductant in the reaction buffer): lack inhibitory activity |
| ARTQKNSerATAHHLGLLKARLAKLRR [DRG1‐Ser, 25-mer DRG1 (16–40) peptide with Ser at position 22] |  |  | Adduct formation was not observed | degree of oxidation (+16 Da) of cysteine/methionine analog peptides by JMJD7 (human JMJD7 [1]; 2 μM JMJD7, 10 μM peptide, 10 μM 2OG): did also not undergo oxidation |
| DRG1-4pyrA peptide (DRG1 residues 16-40, 4pyrA in place of Lys22) |  |  |  | IC50 of inhibition of JMJD7-catalysed (200 nM) hydroxylation of the DRG1-Lys substrate (residues 17-40, 5 μM), MALDI-TOF MS, 15 min preincubation [5]: 15.2 µM |

From paper PMC11400632, “Substrate selectivity and inhibition of the human lysyl hydroxylase JMJD7” (Protein Science : A Publication of the Protein Society, 2024)
